≈ marks a conversion by molar mass, not a printed value. Like-named read-outs stand apart in the source and are kept apart here.
What was measured:
[1] = Cytotoxicity, SRB assay, HepG2; type: cell-based, human; conditions: human, HepG2 cells, 72-h treatment (footnote), read-out: In vitro cytotoxicity CC50 (μM, mean ± SD)
Experimental: (§1) Cytotoxicity in terms of CC50 was determined by the SRB assay according to the protocol described in our previous publication.[16] Briefly, human HUVECs or HepG2 cells were seeded in the wells of 96-well plates at a concentration of 1 × 10^5 cells per well and incubated at 37 °C for 24 h. […] The cells were fixed with 10% trichloroacetic acid (w/v) at 4 °C for 1 h, washed five times with distilled water, and stained with 0.4% SRB solution at room temperature for another 20 min. The cells were then washed five times with 1% acetic acid and air-dried. The protein-bound dye was dissolved in 10 mM Tris-base solution and shaken for 5 min. The optical density (OD) was measured at 540 nm using a microplate reader to estimate the cell viability (%). With the viability values (%) of the cells treated by the compound at different concentrations as input, the CC50 value was determined by the non-linear regression with normalised dose-response fit implemented in GraphPad Prism version 5 software (GraphPad Software Inc., La Jolla, CA). The experiment was performed in duplicate, and paclitaxel was used as the positive drug for this assay.

HepG2 cells = experiment: Cytotoxicity, SRB assay, HepG2; type: cell-based, human; conditions: 72-h treatment (footnote), read-out: In vitro cytotoxicity CC50 (μM, mean ± SD)
Experimental: as §1

[2] = system: methicillin-resistant S. aureus (MRSA); experiment: MIC by broth microdilution, MRSA strains; type: cell-based; conditions: Staphylococcus aureus
Experimental: (§2) All of the bacterial strains used in this study were obtained from the Collection Centre of Pathogen Microorganism of Chinese Academy of Medical Sciences (CAMS-CCPM-A) in China. All of the isolates were stored at −80 °C and streaked on tryptic soy agar (TSA) plates to obtain overnight cultures. The MICs of the test compounds were determined by the broth microdilution method in accordance with the Clinical and Laboratory Standards Institute (CLSI) guidelines.[20] Cation-adjusted Mueller-Hinton broth (CAMHB) was used as the growth medium for MIC assays. Briefly, 100 μL of serially diluted compounds (starting concentrations were 64 μg/mL) in CAMH broth were added to the wells of 96-well microtiter plates. Then, 10 µL of 5 × 10^6 CFU/mL bacterial culture was added to each well. […] The MIC was defined as the lowest concentration of a compound that inhibited visual growth of the bacteria. Vancomycin was set as the positive control for this assay.

[3] = Cytotoxicity, SRB assay, HUVEC; type: cell-based, human; conditions: human, HUVEC cells, 72-h treatment (footnote), read-out: In vitro cytotoxicity CC50 (μM, mean ± SD)
Experimental: as §1

HUVECs = experiment: Cytotoxicity, SRB assay, HUVEC; type: cell-based, human; conditions: 72-h treatment (footnote), read-out: In vitro cytotoxicity CC50 (μM, mean ± SD)
Experimental: as §1

[4] = system: methicillin-sensitive S. aureus (MSSA); experiment: MIC by broth microdilution, MSSA isolates; type: cell-based; conditions: Staphylococcus aureus
Experimental: as §2

in vitro = in vitro ADME, mouse; conditions: mouse, plasma
Experimental: The mouse plasma was purchased from Charles River and stored at −20 °C. The stock solution of the test compound dissolved in DMSO (50 mM) was prepared and diluted to obtain a working solution at the concentration of 0.2 mM. The working solution of the control compound, i.e. propantheline, was similarly prepared (0.2 mM). Terfenadine (5 ng/mL) and tolbutamide (10 ng/mL) dissolved in acetonitrile were used as two quenching solutions.
The mouse plasma was pre-warmed at 37 °C for 15 min. The working solution of the test/control compound (2 µL) was then added to the mouse plasma (398 µL) in a 96-well plate. Next, 30 µL of the reaction mixture was sampled and moved to 300 µL of quenching solutions at each time point: 0, 5, 15, 30, 60, and 120 min for the control compound and 0, 15, 30, 60, and 120 min for the test compound. When the sampling was done, each sample was centrifuged at 4000 rpm at 4 °C for 15 min. Then, 100 µL of the supernatant was removed and mixed with 100 µL of distilled water for LC-MS/MS analysis with Shimadzu HPLC system and the AB Sciex API 4000 QTRAP instrument. The remaining compound (%) after incubation in plasma versus the incubation time was plotted. The half-life (t1/2) value of the compound was determined via linear regression from the plot.

MRSA/VISA strains = experiment: MIC by broth microdilution, MRSA and VISA panel; type: cell-based, S. aureus; conditions: Staphylococcus aureus
Experimental: as §2

[5] = system: vancomycin intermediate resistant S. aureus (VISA); experiment: MIC by broth microdilution, VISA strains; type: cell-based; conditions: Staphylococcus aureus, read-out: MIC
Experimental: as §2

CCCCCc1nc2ccccc2c(=O)n1NC(=O)c1c(O)c2ccccc2n(CC)c1=O [f1, N-(4-oxo-2-pentylquinazolin-3(4H)-yl)-1-ethyl-4-hydroxy-2-oxo-1,2-dihydroquinoline-3-carboxamide]
CC50 at 72 h [1]: ~50 µM
CC50 (HepG2 cells): 49.6 ± 0.2 µM
MIC ([2]; ATCC 33591 / MRSA, MRSA ATCC 33591, read-out: MIC): 4 µg/mL (≈ 8.96 µM)
MIC ([2]; ATCC 43300 / MRSA, MRSA ATCC 43300, read-out: MIC): 4 µg/mL (≈ 8.96 µM)
MIC ([2]; MRSA 18-2, read-out: MIC): 8 µg/mL (≈ 17.9 µM)
MIC ([2]; span over MRSA strains, read-out: MICs against MRSA): 4 to 8 µg/mL (≈ 8.96 to 17.9 µM)
CC50 at 72 h [3]: ~50 µM
CC50 (HUVECs): 51.5 ± 4.5 µM
MIC ([4]; ATCC 29213 / BAA-1708 / BAA-976 / MSSA, ATCC 29213, 15, 18-3, BAA976, BAA1708, span over isolates, read-out: MIC over the five MSSA isolates): 4 to 8 µg/mL (≈ 8.96 to 17.9 µM)
MIC ([4]; ATCC 29213 / MSSA, MSSA ATCC 29213, read-out: MIC): 4 µg/mL (≈ 8.96 µM)
MIC ([4]; BAA-976 / MSSA, MSSA BAA976, read-out: MIC): 4 µg/mL (≈ 8.96 µM)
MIC ([4]; BAA-1708 / MSSA, MSSA BAA1708, read-out: MIC): 4 µg/mL (≈ 8.96 µM)
MIC ([4]; MSSA, MSSA 15, read-out: MIC): 8 µg/mL (≈ 17.9 µM)
MIC ([4]; MSSA, MSSA 18-3, read-out: MIC): 4 µg/mL (≈ 8.96 µM)
half-life at 1 µM (in vitro): > 6.21 h
MIC (MRSA/VISA strains; ATCC 33591 / ATCC 43300 / ATCC 700699 / MRSA / VISA, span over ATCC 33591, ATCC 43300, 18-2, ATCC 700699, HIP 5836, HIP 5827, read-out: MICs for MRSA and VISA strains): 4 to 16 µg/mL
MIC (MRSA/VISA strains; span over tested MRSA/VISA strains, read-out: MICs for MRSA/VISA strains converted to): 8.97 to 35.9 µM
MIC ([5]; ATCC 700699 / VISA, VISA ATCC 700699): 8 µg/mL (≈ 17.9 µM)
MIC ([5]; VISA, VISA HIP 5827): 4 µg/mL (≈ 8.96 µM)
MIC ([5]; VISA, VISA HIP 5836): 16 µg/mL (≈ 35.8 µM)

Reference: paper PMC9186351, “Discovery of N-quinazolinone-4-hydroxy-2-quinolone-3-carboxamides as DNA gyrase B-targeted antibacterial agents” (Journal of Enzyme Inhibition and Medicinal Chemistry, 2022)
